# Experimental data reported in PubChem BioAssay AID264 (DTP/NCI, 2004).
# Several values for one entry are separate records, joined by “and”; a condition that tells them apart may be missing. Equal values may be shown once. Records with an inconclusive call do not appear.
# System: nude mice, LX-1 lung xenograft intrarenal, tumor weight T/C
# Assay: NCI In Vivo Anticancer Drug Screen. Data for tumor model Human Lung LX-1 Xenograft (intrarenal inoculation) in NU/NU Swiss (nude) mice
# Conditions: endpoint: mean tumor weight change, higher = larger tumour
# In short: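 Tumor-bearing mice receive test compound or vehicle; tumor size is then measured in each group. The treated value is divided by the vehicle value to give T/C.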
# [1] = dose: 300.0 mg/kg/injection, schedule: Q04DX003 (sc), vehicle: suspension in saline
# [2] = dose: 600.0 mg/kg/injection, schedule: Q04DX003 (sc), vehicle: suspension in saline
# [3] = dose: 150.0 mg/kg/injection, schedule: Q04DX003 (sc), vehicle: saline
# [4] = dose: 100.0 mg/kg/injection, schedule: Q01DX010 (sc), vehicle: saline
# [5] = dose: 600.0 mg/kg/injection, schedule: Q04DX003 (sc), vehicle: water
# [6] = dose: 1200.0 mg/kg/injection, schedule: Q04DX003 (sc), vehicle: water
# [7] = dose: 75.0 mg/kg/injection, schedule: Q04DX003 (sc), vehicle: saline with Tween-80
# [8] = dose: 150.0 mg/kg/injection, schedule: Q04DX003 (sc), vehicle: saline with Tween-80
# [9] = dose: 300.0 mg/kg/injection, schedule: Q04DX003 (sc), vehicle: saline with Tween-80
# [10] = dose: 6.25 mg/kg/injection, schedule: Q01DX010 (sc), vehicle: saline
# [11] = dose: 12.5 mg/kg/injection, schedule: Q01DX010 (sc), vehicle: saline
# [12] = dose: 300.0 mg/kg/injection, schedule: Q04DX003 (sc), vehicle: water
structure (smiles),measurement,setting,value
CC(=O)Oc1c(C)[nH]ccc1=O,T/C,[1],73 % of control
same,T/C,[2],65 % of control
COc1nc(=O)n(C2C=CC(=O)O2)cc1F (stereo not given),T/C,"dose: 25.0 mg/kg/injection, schedule: Q04DX003 (sc), vehicle: Klucel (hydroxypropylcellulose) (HPC)",66 % of control
same,T/C,"dose: 50.0 mg/kg/injection, schedule: Q04DX003 (sc), vehicle: Klucel (hydroxypropylcellulose) (HPC)",54 % of control
same,T/C,"dose: 100.0 mg/kg/injection, schedule: Q04DX003 (sc), vehicle: Klucel (hydroxypropylcellulose) (HPC)",37 % of control
C/C(=C\c1ccccc1)[N+](=O)[O-],T/C,"dose: 6.25 mg/kg/injection, schedule: Q01DX010 (sc), vehicle: Klucel (hydroxypropylcellulose) (HPC)",60 % of control
same,T/C,"dose: 12.5 mg/kg/injection, schedule: Q01DX010 (sc), vehicle: Klucel (hydroxypropylcellulose) (HPC)",56 % of control
same,T/C,"dose: 100.0 mg/kg/injection, schedule: Q01DX010 (sc), vehicle: Klucel (hydroxypropylcellulose) (HPC)",159 % of control
same,T/C,"dose: 200.0 mg/kg/injection, schedule: Q01DX010 (sc), vehicle: Klucel (hydroxypropylcellulose) (HPC)",196 % of control
CN(C)CCCNc1c2ccccc2nc2cccc([N+](=O)[O-])c12,T/C,"dose: 0.37 mg/kg/injection, schedule: Q04DX003 (sc), vehicle: saline",117 % of control
same,T/C,"dose: 0.75 mg/kg/injection, schedule: Q04DX003 (sc), vehicle: saline",100 % of control
same,T/C,"dose: 1.5 mg/kg/injection, schedule: Q04DX003 (sc), vehicle: saline",95 % of control
N=c1ccn2c(n1)OC1C(O)C(CO)OC12 (stereo not given),T/C,"dose: 37.5 mg/kg/injection, schedule: Q04DX003 (sc), vehicle: saline",91 % of control
same,T/C,"dose: 75.0 mg/kg/injection, schedule: Q04DX003 (sc), vehicle: saline",95 % of control
same,T/C,[3],121 % of control
same,T/C,"dose: 300.0 mg/kg/injection, schedule: Q04DX003 (sc), vehicle: saline",77 % of control
same,T/C,[1],176 % of control
same,T/C,[2],231 % of control
same,T/C,"dose: 800.0 mg/kg/injection, schedule: Q04DX003 (sc), vehicle: saline",24 % of control and 48 % of control
same,T/C,"dose: 1200.0 mg/kg/injection, schedule: Q04DX003 (sc), vehicle: suspension in saline",41 % of control
same,T/C,"dose: 1600.0 mg/kg/injection, schedule: Q04DX003 (sc), vehicle: saline",18 % of control and 31 % of control
same,T/C,"dose: 2400.0 mg/kg/injection, schedule: Q04DX003 (sc), vehicle: suspension in saline",36 % of control
same,T/C,"dose: 3200.0 mg/kg/injection, schedule: Q04DX003 (sc), vehicle: saline",6 % of control and 18 % of control
CN(C1=NS(=O)(=O)N=C(N(C)c2ccccc2)O1)c1ccccc1,T/C,"dose: 300.0 mg/kg/injection, schedule: Q04DX003 (sc), vehicle: Klucel (hydroxypropylcellulose) (HPC)",66 % of control
same,T/C,"dose: 600.0 mg/kg/injection, schedule: Q04DX003 (sc), vehicle: Klucel (hydroxypropylcellulose) (HPC)",61 % of control
same,T/C,"dose: 1200.0 mg/kg/injection, schedule: Q04DX003 (sc), vehicle: Klucel (hydroxypropylcellulose) (HPC)",79 % of control
same,T/C,"dose: 2400.0 mg/kg/injection, schedule: Q04DX003 (sc), vehicle: Klucel (hydroxypropylcellulose) (HPC)",91 % of control
CNC=O,T/C,[4],35 % of control
same,T/C,"dose: 200.0 mg/kg/injection, schedule: Q01DX010 (sc), vehicle: saline",7 % of control and 15 % of control and 21 % of control
same,T/C,"dose: 400.0 mg/kg/injection, schedule: Q01DX010 (sc), vehicle: saline",1 % of control and 2 % of control and 24 % of control
same,T/C,"dose: 1600.0 mg/kg/injection, schedule: Q01DX010 (sc), vehicle: saline",1 % of control
Nc1ccc2nc3ccc(N)cc3[n+](-c3ccccc3)c2c1,T/C,"dose: 36.0 mg/kg/injection, schedule: Q04DX003 (sc), vehicle: saline",110 % of control
same,T/C,"dose: 72.0 mg/kg/injection, schedule: Q04DX003 (sc), vehicle: saline",70 % of control
c1cc[c]([Sn][c]2ccccc2)cc1,T/C,"dose: 10.0 mg/kg/injection, schedule: Q01DX010 (sc), vehicle: saline",78 % of control
same,T/C,"dose: 20.0 mg/kg/injection, schedule: Q01DX010 (sc), vehicle: saline",54 % of control
same,T/C,"dose: 40.0 mg/kg/injection, schedule: Q01DX010 (sc), vehicle: saline",81 % of control
CC[C@@H](C)[C@@H]1NC(=O)C(NC(=O)C(CC(C)C)N(C)C(=O)C2CCCN2C(=O)C(C)O)C(C)OC(=O)C(Cc2ccc(OC)cc2)N(C)C(=O)C2CCCN2C(=O)C(CC(C)C)NC(=O)C(C)C(=O)C(C(C)C)OC(=O)C[C@H]1O (stereo not given in full),T/C,"dose: 75.0 micrograms/kg/injection, schedule: Q04DX003 (sc), vehicle: distilled water + alcohol",28 % of control
same,T/C,"dose: 600.0 micrograms/kg/injection, schedule: Q04DX003 (sc), vehicle: distilled water + alcohol",85 % of control and 87 % of control
same,T/C,"dose: 1200.0 micrograms/kg/injection, schedule: Q04DX003 (sc), vehicle: distilled water + alcohol",87 % of control
Nc1ccn(C2OC(CO)C(O)C2O)c(=O)n1 (stereo not given),T/C,"dose: 31.25 mg/kg/injection, schedule: Q01DX010 (sc), vehicle: water",73 % of control and 95 % of control
same,T/C,[5],47 % of control
same,T/C,"dose: 819.2 mg/kg/injection, schedule: Q04DX003 (sc), vehicle: water",46 % of control
same,T/C,"dose: 1024.0 mg/kg/injection, schedule: Q04DX003 (sc), vehicle: water",61 % of control
same,T/C,[6],34 % of control
same,T/C,"dose: 1280.0 mg/kg/injection, schedule: Q04DX003 (sc), vehicle: water",23 % of control
same,T/C,"dose: 1600.0 mg/kg/injection, schedule: Q04DX003 (sc), vehicle: water",20 % of control
O=C(O)C1CC1.[Ag],T/C,"dose: 37.5 mg/kg/injection, schedule: Q04DX003 (sc), vehicle: saline with Tween-80",63 % of control
same,T/C,[7],57 % of control
same,T/C,[8],62 % of control
same,T/C,[9],54 % of control
O=P(O)(NCCCl)NCCCl,T/C,[3],33 % of control
O=C1CN(Cc2ccc3c(c2)OCO3)NO1,T/C,[7],63 % of control
same,T/C,[8],76 % of control
same,T/C,[9],63 % of control
same,T/C,"dose: 600.0 mg/kg/injection, schedule: Q04DX003 (sc), vehicle: saline with Tween-80",46 % of control
O=c1[nH]c2c(ccc3cnccc32)c2c1CCC2,T/C,"dose: 100.0 mg/kg/injection, schedule: Q04DX003 (sc), vehicle: suspension in saline",87 % of control
same,T/C,"dose: 200.0 mg/kg/injection, schedule: Q04DX003 (sc), vehicle: suspension in saline",87 % of control
same,T/C,"dose: 400.0 mg/kg/injection, schedule: Q04DX003 (sc), vehicle: suspension in saline",57 % of control
same,T/C,"dose: 800.0 mg/kg/injection, schedule: Q04DX003 (sc), vehicle: suspension in saline",109 % of control
Cc1c2c(ccc3ccccc32)c[n+]2ccccc12,T/C,"dose: 3.13 mg/kg/injection, schedule: Q01DX010 (sc), vehicle: saline",59 % of control
same,T/C,[10],83 % of control
same,T/C,[11],38 % of control
CCCCCCCCCCCC(=O)NC1CC(O[C@H]2C[C@](O)(C(=O)CO)Cc3c(O)c4c(c(O)c32)C(=O)c2c(OC)cccc2C4=O)OC(C)C1O (stereo not given in full),T/C,[12],5 % of control
same,T/C,[5],76 % of control
same,T/C,[6],55 % of control
same,T/C,"dose: 2400.0 mg/kg/injection, schedule: Q04DX003 (sc), vehicle: water",118 % of control
CC(=O)C1(O)Cc2c(O)c3c(c(O)c2C(OC2CC(N)C(O)C(C)O2)C1)C(=O)c1ccccc1C3=O (stereo not given),T/C,"dose: 0.5 mg/kg/injection, schedule: Q04DX003 (sc), vehicle: water",120 % of control
CC1(C)CC23C4COC(=O)C2CCC1C3CC4=O (stereo not given),T/C,"dose: 150.0 mg/kg/injection, schedule: Q04DX003 (sc), vehicle: DMSO",88 % of control
same,T/C,"dose: 300.0 mg/kg/injection, schedule: Q04DX003 (sc), vehicle: DMSO",51 % of control
same,T/C,"dose: 600.0 mg/kg/injection, schedule: Q04DX003 (sc), vehicle: DMSO",67 % of control
same,T/C,"dose: 1200.0 mg/kg/injection, schedule: Q04DX003 (sc), vehicle: DMSO",63 % of control
Cc1c2ccncc2c(C)c2c1[nH]c1ccccc12,T/C,[10],24 % of control
same,T/C,[11],85 % of control
same,T/C,"dose: 50.0 mg/kg/injection, schedule: Q01DX010 (sc), vehicle: saline",72 % of control and 75 % of control
same,T/C,[4],59 % of control
CC(C)[C@](O)(C(=O)OCC1=CCN2CC[C@@H](O)[C@@H]12)[C@H](C)O,T/C,"dose: 150.0 mg/kg/injection, schedule: Q04DX003 (sc), vehicle: water",80 % of control
same,T/C,[12],91 % of control
same,T/C,[5],82 % of control
same,T/C,[6],70 % of control
CC[C@@]1(O)C(=O)OCc2c1cc1n(c2=O)Cc2cc3cc(O)ccc3nc2-1,T/C,"dose: 32.0 mg/kg/injection, schedule: Q04DX003 (sc), vehicle: suspension in saline",12 % of control and 14 % of control
